In US6008041A, “Bovine dipeptidylaminopeptidase 1” (Eli Lilly and Company, priority 1997, dated 1999):
Peptide text beside a SMILES is read from it. * marks the point of attachment. pNA = O=[N+]([O-])c1ccc(N*)cc1; βNA = c1ccc2cc(N*)ccc2c1; Cbz = O=C(OCc1ccccc1)*

Assays:
bDAP 1 [1] = assay: pH dependence of GRpNA cleavage; format: biochemical, bovine; conditions: below pH 2.5 or above pH 5
Method: Four mM GRpNA was prepared in 50 mM acetic acid, 50 mM glycine buffer, pH 5. HCl or NaOH was used to achieve a variety of pHs, from 5.1 to 2.3. To 180 ul of the above pH buffered substrate was added 5 ul bDAP 1 (49 milliunits/ml final). The rate of increase of absorbance at 410 nm was monitored (using a plate-reader) and the rate of increase was compared with the pH of the reaction solution.

Bovine DAP-I = Bovine DAP-I (Bos taurus, UniProt Q3ZCJ8); assay: Cleavage of RRBNA / Z-RRBNA (fluorescence); format: biochemical; conditions: 0.25 mM substrate, pH 3.5 or pH 5.0, about 15 milliunit/ml enzyme
Method: (§1) About 0.25 mM RRBNA or 0.25 mM Z-RRBNA was prepared in either 100 mM acetic acid, pH 3.5, or 100 mM citrate buffer, pH 5.0. To 2 ml of substrate was added bDAP 1 or bovine DAP-I (about 15 milliunit/ml solution). Rates of cleavage (monitoring fluorescence increase at 410 nm with excitation at 340 nm) were monitored. […] The pH optimum for cleavage of RRBNA was probed by monitoring the rate of RRBNA cleavage using a buffer system consisting of 50 mM acetic acid and 50 mM citrate. Various pHs were achieved using HCl or NaOH and 1.5 ml volumes were made 2.0 with 0.5 ml of a 1 mM stock solution of RRBNA (final concentration of about 0.25 mM). bDAP 1 was added (to about 15 mU/ml) and the rates of cleavage were determined.

bDAP 1 [2] = assay: Cleavage of RRBNA / Z-RRBNA (fluorescence); format: biochemical, bovine; conditions: for ability of the enzyme to cleave the substrate: 0.25 mM substrate, pH 3.5 or pH 5.0, about 15 milliunit/ml enzyme
Method: as §1

bDAP 1 [3] = assay: Inhibition of GFpNA cleavage by sulfhydryl modifying agents; format: biochemical, bovine; conditions: 0.5, 5.0 or 50 mM inhibitor, 15 minutes at room temperature, pH 7; then 4 mM GFpNA pH 3.5, 37° C.
Method: (§2) After purification or storage, bDAP 1 enzymatic activity was usually monitored by following the cleavage of the chromogenic substrate GFpNA. Typically the assay was performed by diluting the enzyme at least 11 fold into 1.0 ml of 4 mM GFpNA in 0.05M acetic acid adjusted to pH 3.5. The rate of cleavage of Gly-Phe dipeptide was monitored at 37° C. by measuring the increase in absorbance at 405 nm. One unit of activity leads to a 0.90 OD change per minute under these conditions. Unit/ml estimates can be made assuming an extinction coefficient for free p-nitroanilide (pNA) of 9.9 mM-1 cm-1 at 405 nm.
(§3) The inhibition profile of bDAP 1 toward the substrate GFpNA was compared to that of bovine spleen DAP-I using iodoacetamide and potassium tetrathionate, sulfihydryl modifying agents known to inhibit the activity of bovine spleen DAP-I. Samples of bDAP 1 or bovine spleen DAP-I were incubated for 15 minutes at room temperature in final concentrations of 0, 0.5, 5.0 or 50 mM of either inhibitor at pH 7 in 100 mM Tris buffer. The incubated solutions were then diluted 21-fold with 4 mM GFpNA, pH 3.5. The rate of cleavage was monitored by measuring the increase in absorbance at 405 nm at 37° C. Bovine DAP-I's rate of cleavage of GFpNA was decreased more than 90% by the exposure to 5 mM iodoacetamide and was 95% inhibited by 5 mM potassium tetrathionate.

bovine spleen DAP-I = bovine spleen DAP-I (Bos taurus, UniProt Q3ZCJ8); assay: as above; format: biochemical; conditions: 5 mM inhibitor, 15 minutes at room temperature, pH 7, 100 mM Tris; then diluted 21-fold with 4 mM GFpNA pH 3.5, 37° C., 405 nm; read-out: decrease of rate of cleavage of GFpNA (inhibition)
Method: as §2, §3

Sequence of Bovine DAP-I (Q3ZCJ8 25-134): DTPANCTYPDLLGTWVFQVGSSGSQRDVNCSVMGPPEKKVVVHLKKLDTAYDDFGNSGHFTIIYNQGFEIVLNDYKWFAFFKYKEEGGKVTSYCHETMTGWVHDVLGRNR
Sequence of Bovine DAP-I (Q3ZCJ8 231-463): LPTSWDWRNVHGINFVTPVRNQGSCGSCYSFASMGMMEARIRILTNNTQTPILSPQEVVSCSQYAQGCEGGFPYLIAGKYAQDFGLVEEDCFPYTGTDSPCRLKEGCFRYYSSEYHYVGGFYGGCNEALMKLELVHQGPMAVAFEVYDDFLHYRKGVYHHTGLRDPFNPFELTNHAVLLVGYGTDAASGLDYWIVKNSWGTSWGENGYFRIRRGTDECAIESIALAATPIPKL
Sequence of bovine spleen DAP-I (Q3ZCJ8 25-134): as the sequence (Q3ZCJ8 25-134) above
Sequence of bovine spleen DAP-I (Q3ZCJ8 231-463): as the sequence (Q3ZCJ8 231-463) above

Structure (SMILES): N=C(N)NCCC[C@H](NC(=O)CN)C(=O)Nc1ccc([N+](=O)[O-])cc1 [GRpNA, Gly-Arg-pNA] (H-Gly-Arg-pNA)
- activity outside the optimum range (bDAP 1 [1]): little activity

Structure (SMILES): N=C(N)NCCC[C@H](NC(=O)[C@@H](N)CCCNC(=N)N)C(=O)Nc1ccc2ccccc2c1 [RRBNA, Arg-Arg-β-naphthylamide] (H-Arg-Arg-βNA)
- ability of the enzyme to cleave the substrate (Bovine DAP-I): unable to cleave
- ability of the enzyme to cleave the substrate (bDAP 1 [2]): able to effectively cleave
- activity over the pH range probed (bDAP 1 [2]; pH 3.5 to pH 5.7): significant activity

Structure (SMILES): N=C(N)NCCC[C@H](NC(=O)OCc1ccccc1)C(=O)N[C@@H](CCCNC(=N)N)C(=O)Nc1ccc2ccccc2c1 [Z-RRBNA, benzyloxycarbonyl-RRBNA] (Cbz-Arg-Arg-βNA)
- ability of the enzyme to cleave the substrate (Bovine DAP-I): unable to cleave
- ability of the enzyme to cleave the substrate (bDAP 1 [2]): unable to cleave

Structure (SMILES): NC(=O)CI [iodoacetamide]
- inhibition of GFpNA cleavage (bDAP 1 [3]): no evidence of significant inhibition
- inhibition at 5000 µM (bovine spleen DAP-I): > 90%

Structure (SMILES): O=S(=O)([O-])SSS(=O)(=O)[O-].[K+].[K+] [potassium tetrathionate]
- inhibition of GFpNA cleavage (bDAP 1 [3]): no evidence of significant inhibition
